Consider five molecules from patent US8202555B2, “Natural pharmaceutical preparations for increasing albumin” (priority 2009, dated 2012).

The nature of test [1]: CCl4-induced liver injury (cirrhosis with ascites) in rats: serum proteins, ascites, fibrosis markers. It counts as in vivo, rat. Conditions: 4 weeks.
Test [2] in a line: Serum albumin in rats with intra-abdominal infection. It counts as in vivo. To be noted: 30 mg/kg. From the text:
The mice are divided into 6 groups (n=10), i.e., Normal control group, Negative control group, Positive control group (Panaxoside), in the remaining 3 groups, rats were fed with preparation 1 through intragastric administration for 6 days. Under anesthesia by diethyl ether, abdominal cavity of mice were cut open, experimental staff stick a puncture on appendices with needle to cause it infected, then sew up abdominal wound. Continue administration after surgery, animals were executed for collecting their blood to measure serum albumin levels, results are listed in Table 7.

Another test deals with SIV. To be noted: general statement, no own test; cited from earlier work.
Test [3] can be described thus: Tuberculous pleural effusions and serum albumin in BCG-sensitized guinea pigs. Conditions: 5 mg/kg, 7 days. In kind it is in vivo. From the text:
After sensitizing with BCG for 42 days, guinea pig was administrated with preparations for 7 days, sensitized for 2 days continuously, then measured the level of Pleural Effusion, number of white blood cell and content of serum albumin

Test [4] relates to R-resistant (Rifampicin) tubercle bacillus. In kind it is cell-based. Conditions: serum of mice dosed 25 mg/kg, 10% serum.
Another test relates to H37Rv Tubercle Bacillus. Kind of test: Anti-tubercle bacillus assay in vivo, total lung bacterial count. Conditions: infected C57BL/6 mice, 25 mg/kg. On the procedure: Anti-tubercle bacillus assay is tested in vivo. C57BL/6 mice infected with H37Rv Tubercle Bacillus are divided into 6 groups (n=15), one is normal control group, another is positive control group (INH: 25 mg/kg), in other groups, preparations was added into mice's feed, animals are administrated consecutive 16 weeks.
Experimental staff Killed 5 mice at the 2nd, 4th, 16th week, obtained lung and spleen, put them into 1 ml 7H9 media, grinded and converted them into 1.5 ml Ep tube, doublely diluted 10 times with 7H9 media, then Plated different dilutions onto 7H11 solid media plates for 4w at 37° C., counted tuberculosis colonys.
Calculation Formula: (initial number of clone×final broth volume×dilution factor 10^3×2×10)+(initial number of clone colony×final broth volume×dilution factor 10^4×2×10)+(initial number of clone colony×final broth volume×dilution factor 10^5×2×10)/3
Take tissue for pathological examination, weight lung, Calculation Formula: (initial number of clone×final broth volume×dilution factor 10^3×2×10)+(initial number of clone colony×final broth volume×dilution factor 10^4×2×10)+(initial number of clone colony×final broth volume×dilution factor 10^5×2×10)/3×initial organ weight/organ weight in treatment.
Count number of Lung bacterial or mouse spleen CFU of every mouse in each group, convert data in accordance with 1 g (CFU).

The test system of test [5] is HRSE-resistant (Isoniazid, Rifampicin, Streptomycin, Ethambutol-resistant) tubercle bacillus. In kind it is cell-based. To be noted: serum of mice dosed 25 mg/kg, 10% serum.
The test system of test [6] is H-resistant (Isoniazid) tubercle bacillus. It counts as cell-based. Conditions: serum of mice dosed 25 mg/kg, 10% serum.
In test [7] the test system is HR-resistant (Isoniazid and Rifampicin) tubercle bacillus. In kind it is cell-based. To be noted: serum of mice dosed 25 mg/kg, 10% serum.
Setting [8] is: CCl4 rats with ascites, 0.23 mg/kg intragastrically.

In test [1] (setting [8]), `COc1cc2c(c(OC)c1OC)-c1ccc(OC)c(=O)cc1[C@@H](NC(C)=O)CC2` [Colchicine, colchicine] came in with an ALB of 38.1 ± 5.6 g/L, an ALB/GLB of 2.8 ± 1.6 and a GLB of 17.1 ± 7.7 g/L. Besides, in test [1] (CCl4 rats, 0.23 mg/kg), the “Incidence (ascites)” value is reported as 50%. Further, the “Animal with ascites n” value in [1] (CCl4 rats, 0.23 mg/kg, of 10 animals) was 5. Also, in test [1] (CCl4 rats, liver, 0.23 mg/kg), the HPRO is given as 0.29 ± 0.08 mg/g (Liver Weight).
Take Panaxoside: the ALB in [2] was 29.64 ± 2.29 g/L.
For `Cc1cn([C@H]2C[C@H](N=[N+]=[N-])[C@@H](CO)O2)c(=O)[nH]c1=O` [AZT, Zidovudine], the “inhibition of infection by SIV” value with SIV is “could not inhibited infection”.
For the molecule `C[C@@H]1C[C@H]2[C@@H]3CCC4=CC(=O)C=C[C@]4(C)[C@@]3(F)[C@@H](O)C[C@]2(C)[C@@]1(O)C(=O)CO` [Dexamethasone], in test [3], the ALB was 29.05 ± 3.49 g/L, the Exudates volumes was 1.2 ± 0.44 mL and the WBC is recorded as 19.1 ± 5.24 ×109.
On to `NNC(=O)c1ccncc1` [INH, Isoniazid], for which the “Inhibition rate of serum, R-resistance” value in test [4] worked out at 72%. The “Total Lung bacterical count, Mean lg (CFU ± SEM)” value with H37Rv Tubercle Bacillus (2 w) is on record as 6.12 ± 0.22 lg (CFU); with H37Rv Tubercle Bacillus (4 w) it was 5.59 ± 0.20 lg (CFU); in the test on H37Rv Tubercle Bacillus (16 w), 2.77 ± 0.16 lg (CFU). For the same molecule, the “Inhibition rate of serum, HRSE-resistance” value in test [5] came out at 21%. For the same molecule, the “Inhibition rate of serum, H-resistance” value in test [6] is listed as 0%. In [7], the “Inhibition rate of serum, HR-resistance” value is listed as 67%.
